Where no end group is shown, it is not given here. [ ]: non-standard residue; d: D form. Hyp = O=C(O)[C@@H]1C[C@@H](O)CN1
Tests used:
human dermal fibroblasts [1] = test: Proteoglycan assay (Blyscan glycosaminoglycan assay): proteoglycan synthesis by dermal fibroblasts; type: cell-based; conditions: 0.5 mg/ml collagen peptide, stimulation for two weeks, photometric at 656 nm, FIG. 1B
Experimental: (§1) The human cells used were obtained from tebu-bio GmbH, Offenbach, Germany. The chondrocytes (Cat. No. 402-05a) or dermal fibroblasts (Cat. No. 106-05a) were first sown in 12-well culture plates and cultured at 37° C., 5% CO2 in Ham's F12 medium, to which 10% fetal calf serum, 20 U/ml penicillin-streptomycin and 50 μg/ml ascorbic acid were added. On every other day, the culture medium was replaced by new culture medium until the cells had reached 80% confluence. To investigate the influence of the collagen peptides according to the invention of SEQ ID NO: 7, 8, 9 and 10 on the biosynthesis of matrix proteins, the cell culture medium was then replaced by a special stimulation medium to which 0.5 mg/ml of the specific collagen peptides according to the invention were added.
The Blyscan glycosaminoglycan assay (Article No. 054B3000, 2019, tebu-bio, Offenbach, Germany, or Biocolor Ltd., UK) was used to determine proteoglycans. The biosynthesis of proteoglycans was determined after stimulating dermal fibroblasts for two weeks. According to the manufacturer's instructions, after discarding the culture medium, the cell layers were covered with 1 ml of papain extraction solution and incubated for three hours at 65° C. with vigorous shaking. The cell suspensions were then centrifuged (10,000 g, 10 min) and the supernatants were collected. After adding 1 ml of Blyscan dye solution and shaking (30 min), the supernatants were centrifuged again (12,000 rpm, 10 min) and then discarded. The isolated proteoglycan pellets were resuspended in 500 μl of dissociation solution. A photometric determination of the synthesized proteoglycan in 200 μl sample solution was carried out at a wavelength of 656 nm in comparison to untreated control experiments.

human dermal fibroblasts [2] = test: Collagen assay (Sircol): collagen synthesis by dermal fibroblasts; type: cell-based; conditions: 0.5 mg/ml collagen peptide, stimulation for three weeks, photometric at 492 nm, FIG. 1A
Experimental: as §1
To investigate the collagen metabolism, the amount of newly synthesized collagen was determined after stimulating the cells with 0.5 mg/ml BCP for three weeks. The synthesized collagen was isolated using the Sircol assay (Article No. 054S5000, 2019, tebu-bio, Offenbach, Germany, or Biocolor Ltd., UK) according to the manufacturer's instructions. In brief, the culture medium was initially discarded and the adherent cell layers were digested with 0.1 mg pepsin solution in 0.5 M acetic acid at 4° C. overnight. The cell suspensions were neutralized by adding 100 μl of an acid-neutralizing reagent. The synthesized collagen was then separated off by adding 200 μl of an isolation and concentration solution with vigorous shaking at 4° C. overnight. After centrifugation (12,000 rpm, 10 min) and discarding the supernatant, the isolated collagen was resuspended in 1 ml of Sircol dye solution. After 30 minutes of shaking and another centrifugation, the collagen pellet was covered with 750 μl of cold acidic solid washing reagent. After another centrifugation, the supernatant was again discarded and the enriched collagen was taken up in 250 μl of alkaline solution. In each case 200 μl of the sample solutions were used for photometric quantification of the synthesized collagen. The absorbance was measured at a wavelength of 492 nm. The amount of collagen synthesized in each case was determined on the basis of standardized collagen solutions.

| Substance | increase of synthesis of proteoglycans by dermal fibroblasts in comparison to untreated controls (human dermal fibroblasts [1]) [%] | increased collagen synthesis by dermal fibroblasts compared to untreated controls (human dermal fibroblasts [2]) [%] |
| --- | --- | --- |
| GL[P]GKMGVFGLTGPIGP[P]GPWGV[P]GHKGYLGPT (GL[Hyp]GKMGVFGLTGPIGP[Hyp]GPWGV[Hyp]GHKGYLGPT) [SEQ ID NO: 7] | 26 | 27 |
| GL[P]GKYGVHGLTGPLGP[P]GPMGI[P]GWKGFVGPT (GL[Hyp]GKYGVHGLTGPLGP[Hyp]GPMGI[Hyp]GWKGFVGPT) [SEQ ID NO: 8] | 22 | 22 |
| GP[P]GPLGMKGL[P]GVWGPFGL[P]GTPGPHGITGYKGV [SEQ ID NO: 9] | 21 | 21 |
| GP[P]GPVGTKGL[P]GFYGPLGI[P]GHPGPWGMLGTKGV [SEQ ID NO: 10] | 22 | 21 |

— US12528857B2, “Nutritionally-optimized collagen peptide” (Gelita AG, priority 2019, dated 2026)
